Experimental findings from US4640926A, “3,5-Substituted-2-pyridylalkylaminothiadiazoles having histamine H1 -antagonist activity” (Smith Kline & French Laboratories Limited, priority 1982, dated 1987) are described below.

One assay addresses T1, histamine H1 -receptor (Cavia porcellus, UniProt P31389).
T1 construct: an isolated portion of the guinea pig ileum is secured under tension; from tissue; host or cells: isolated guinea pig ileum
As to the kind of experiment: guinea pig ileum test (histamine H1-antagonist activity in vitro). In kind it is cell-based. Particulars: isolated guinea pig ileum, histamine-induced contraction, 8 min contact, 30° C., Schild plot; read-out: pA2 value (converted). As for the experimental part: In this test an isolated portion of the guinea pig ileum is secured under tension (500 mg) between an anchorage and a transducer in a 10 ml tissue bath and immersed in magnesium free Tyrode solution with constant aeration at a temperature of 30° C. The output from the transducer is amplified. The amplified output is in turn fed to a flat bed recorder. Measured amounts of histamine are added to the tissue bath so that the histamine concentration increases step-wise until the force of the contraction reaches a maximum. The tissue bath is washed out and filled with fresh magnesium free Tyrode solution containing compound under test. The solution is left in contact with the tissue for 8 min. and measured amounts of histamine are added again until a maximum contraction is recorded. The assay is repeated with increasing concentrations of test compound and the dose of histamine giving 50% of maximum contraction is noted. A dose ratio (DR) was calculated by comparing the concentrations of histamine required to produce 50% maximum response in the absence and in the presence of the antagonist. A plot of Log DR-1 against Log D (the concentration of compound under test) is made and the point of intersection with the Log (DR-1) ordinate is taken as the measure of the activity (pA2 value).

The next assay deals with T2, histamine H2 -receptor (Cavia porcellus, UniProt P47747).
T2 construct: isolated portion of the guinea pig right atrium is secured under tension; from tissue; host or cells: isolated guinea pig right atrium
T2 sequence (P47747 whole entry): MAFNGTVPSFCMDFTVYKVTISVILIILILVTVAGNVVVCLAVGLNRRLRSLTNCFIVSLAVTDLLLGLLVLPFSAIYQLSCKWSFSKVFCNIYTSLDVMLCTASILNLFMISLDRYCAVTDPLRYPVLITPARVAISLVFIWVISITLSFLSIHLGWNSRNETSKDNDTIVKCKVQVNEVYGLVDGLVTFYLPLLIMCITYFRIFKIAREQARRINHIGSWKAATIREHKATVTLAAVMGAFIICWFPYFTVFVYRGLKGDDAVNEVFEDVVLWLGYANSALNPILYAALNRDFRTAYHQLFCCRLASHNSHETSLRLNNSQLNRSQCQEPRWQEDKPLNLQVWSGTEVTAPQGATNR
The assay can be described thus: guinea pig atrium test (histamine H2-antagonist activity in vitro). In kind it is cell-based. Particulars: isolated guinea pig right atrium, histamine-stimulated rate of beating, 60 min contact, 37° C., Schild plot; read-out: pA2 value (converted). As for the experimental part: The histamine H2 -antagonist activity of the compounds of formula (1) can be determined in vitro in the guinea pig atrium test. In this test a spontaneously beating isolated portion of the guinea pig right atrium is secured under tension (300 mg) between an anchorage and a transducer in a 15 ml tissue bath and immersed in McEwens solution with constant aeration at a temperature of 37° C. The output from the transducer is amplified. Output is in turn fed to a flat bed recorder. Measured amounts of histamine are added to the tissue bath so that the histamine concentration increases step-wise until the rate of beating reaches a maximum. The tissue bath is washed out and filled with fresh McEwens solution containing compound under test. The solution is left in contact with the tissue for 60 min. and measured amounts of histamine are added again until a maximum rate is recorded. The assay is repeated with increasing concentrations of test compound and the dose of histamine giving 50% of maximum rate is noted. A dose ratio (DR) was calculated by comparing the concentrations of histamine required to produce 50% maximum response in the absence and in the presence of the antagonist. A plot of Log DR-1 against Log D (the concentration of compound under test) is made and the point of intersection with the Log (DR-1) ordinate is taken as the measure of the activity (pA2 value).

Structures are written as SMILES. A value given as a limit tells only on which side of the number the result lay.

T1 sequence (P31389 whole entry): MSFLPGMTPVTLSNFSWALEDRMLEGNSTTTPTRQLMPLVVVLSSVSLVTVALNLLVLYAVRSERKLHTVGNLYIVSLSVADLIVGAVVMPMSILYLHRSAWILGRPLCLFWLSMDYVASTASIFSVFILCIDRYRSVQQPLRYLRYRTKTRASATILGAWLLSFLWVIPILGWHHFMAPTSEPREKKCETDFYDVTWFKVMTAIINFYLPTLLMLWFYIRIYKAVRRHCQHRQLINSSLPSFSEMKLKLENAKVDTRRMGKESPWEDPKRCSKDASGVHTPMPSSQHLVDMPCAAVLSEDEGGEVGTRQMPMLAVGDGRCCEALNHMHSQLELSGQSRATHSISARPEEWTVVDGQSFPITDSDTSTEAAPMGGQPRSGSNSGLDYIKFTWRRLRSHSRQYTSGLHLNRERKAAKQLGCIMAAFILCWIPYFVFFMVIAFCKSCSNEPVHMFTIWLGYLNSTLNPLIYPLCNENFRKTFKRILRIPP

`CNC(=NCCCCc1ncc(Br)cc1C)NC#N` [Example 1, N-cyano-N'-methyl-N"-[4-(5-bromo-3-methylpyrid-2-yl)-butyl]-guanidine]: the Kb on histamine H1 -receptor was < 0.01 µM; on histamine H2 -receptor, > 10 µM.

For the compound `Cc1cc(Br)cnc1CCCCN=C(NC#N)NCc1ccccc1` [Example 2, N-cyano-N'-benzyl-N"-[4-(5-bromo-3-methylpyrid-2-yl)-butyl]-guanidine], the Kb was < 0.01 µM at histamine H1 -receptor and > 10 µM at histamine H2 -receptor.
